Each structure is given as a SMILES string.

The target in one experiment is D(2) dopamine receptor (Rattus norvegicus, UniProt P61169). In words: Binding affinity determined against dopamine receptor D2 in rat caudate membranes using [3H]- raclopride as radioligand. The class given is cell membranes.
Experiment [1] deals with T1, Adrenergic receptor alpha-1 (Rattus norvegicus, UniProt P15823+P23944+P43140).
T1 sequence (P15823 whole entry): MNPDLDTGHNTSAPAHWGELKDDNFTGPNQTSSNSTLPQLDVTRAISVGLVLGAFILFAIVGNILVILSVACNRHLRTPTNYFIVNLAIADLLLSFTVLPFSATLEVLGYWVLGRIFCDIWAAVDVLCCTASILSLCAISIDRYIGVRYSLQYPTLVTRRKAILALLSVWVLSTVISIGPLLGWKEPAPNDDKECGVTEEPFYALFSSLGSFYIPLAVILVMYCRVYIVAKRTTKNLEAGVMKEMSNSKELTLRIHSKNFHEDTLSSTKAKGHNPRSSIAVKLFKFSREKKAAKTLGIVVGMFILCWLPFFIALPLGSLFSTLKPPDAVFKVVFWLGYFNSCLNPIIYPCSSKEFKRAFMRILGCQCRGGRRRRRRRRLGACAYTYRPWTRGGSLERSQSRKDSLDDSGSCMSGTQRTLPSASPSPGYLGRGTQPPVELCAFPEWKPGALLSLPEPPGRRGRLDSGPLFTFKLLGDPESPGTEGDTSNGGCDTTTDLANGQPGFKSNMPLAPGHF
T1 sequence (P23944 whole entry): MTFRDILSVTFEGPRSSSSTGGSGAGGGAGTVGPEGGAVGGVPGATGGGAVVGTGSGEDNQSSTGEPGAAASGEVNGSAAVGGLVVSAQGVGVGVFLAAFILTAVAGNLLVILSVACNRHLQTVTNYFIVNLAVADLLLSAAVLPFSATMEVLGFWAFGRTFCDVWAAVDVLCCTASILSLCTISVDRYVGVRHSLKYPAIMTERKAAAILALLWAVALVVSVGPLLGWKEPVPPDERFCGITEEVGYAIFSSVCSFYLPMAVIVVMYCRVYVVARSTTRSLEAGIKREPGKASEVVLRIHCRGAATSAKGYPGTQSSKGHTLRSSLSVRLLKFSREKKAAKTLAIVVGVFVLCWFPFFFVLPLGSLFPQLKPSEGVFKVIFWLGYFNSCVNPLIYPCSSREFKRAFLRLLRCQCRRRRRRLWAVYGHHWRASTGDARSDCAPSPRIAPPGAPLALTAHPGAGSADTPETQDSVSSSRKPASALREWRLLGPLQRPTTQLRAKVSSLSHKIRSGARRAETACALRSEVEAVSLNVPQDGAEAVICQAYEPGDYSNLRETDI
T1 sequence (P43140 whole entry): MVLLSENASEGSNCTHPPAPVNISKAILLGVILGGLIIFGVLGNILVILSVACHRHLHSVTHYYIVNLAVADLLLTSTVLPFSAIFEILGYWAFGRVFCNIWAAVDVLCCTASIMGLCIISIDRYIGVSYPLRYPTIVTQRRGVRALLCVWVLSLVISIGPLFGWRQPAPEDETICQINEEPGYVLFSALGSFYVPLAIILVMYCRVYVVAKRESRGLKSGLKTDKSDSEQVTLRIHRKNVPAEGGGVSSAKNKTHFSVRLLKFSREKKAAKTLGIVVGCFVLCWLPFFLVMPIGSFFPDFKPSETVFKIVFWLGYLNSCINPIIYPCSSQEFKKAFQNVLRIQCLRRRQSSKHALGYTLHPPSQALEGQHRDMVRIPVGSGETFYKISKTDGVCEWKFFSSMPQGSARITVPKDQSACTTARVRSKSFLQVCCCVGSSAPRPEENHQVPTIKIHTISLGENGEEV
In words: Binding affinity determined against alpha-1 adrenergic receptor in rat cortex membranes using [3H]prazosin as radioligand. The class given is cell membranes.

The target of experiment [2] is Sodium-dependent serotonin transporter (Rattus norvegicus, UniProt P31652). In words: In vitro binding affinity towards serotonin transporter using [3H]citalopram as radioligand in rat cerebral cortex membranes. The class given is cell membranes, Membrane.
Experiment [3] deals with 5-hydroxytryptamine receptor 1B (Homo sapiens, UniProt P28222). In words: Binding affinity towards human 5-hydroxytryptamine 1B receptor in L-M(tk-) cells using [3H]GR-125743 as radioligand. In kind it is cell-based.
The target in experiment [4] is 5-hydroxytryptamine receptor 1D (Homo sapiens, UniProt P28221). In words: Binding affinity towards human 5-hydroxytryptamine 1D receptor in L-M(tk-) cells using [3H]GR-125743 as radioligand. The class given is cell-based.
The species named for the next experiment is Cavia porcellus. Nature of the experiment: Ability at 30 uM to potentiate potassium-stimulated [3H]5-HT release from preloaded guinea pig cortical slices. In kind it is functional.

Sequence of Sodium-dependent serotonin transporter (P31652 whole entry): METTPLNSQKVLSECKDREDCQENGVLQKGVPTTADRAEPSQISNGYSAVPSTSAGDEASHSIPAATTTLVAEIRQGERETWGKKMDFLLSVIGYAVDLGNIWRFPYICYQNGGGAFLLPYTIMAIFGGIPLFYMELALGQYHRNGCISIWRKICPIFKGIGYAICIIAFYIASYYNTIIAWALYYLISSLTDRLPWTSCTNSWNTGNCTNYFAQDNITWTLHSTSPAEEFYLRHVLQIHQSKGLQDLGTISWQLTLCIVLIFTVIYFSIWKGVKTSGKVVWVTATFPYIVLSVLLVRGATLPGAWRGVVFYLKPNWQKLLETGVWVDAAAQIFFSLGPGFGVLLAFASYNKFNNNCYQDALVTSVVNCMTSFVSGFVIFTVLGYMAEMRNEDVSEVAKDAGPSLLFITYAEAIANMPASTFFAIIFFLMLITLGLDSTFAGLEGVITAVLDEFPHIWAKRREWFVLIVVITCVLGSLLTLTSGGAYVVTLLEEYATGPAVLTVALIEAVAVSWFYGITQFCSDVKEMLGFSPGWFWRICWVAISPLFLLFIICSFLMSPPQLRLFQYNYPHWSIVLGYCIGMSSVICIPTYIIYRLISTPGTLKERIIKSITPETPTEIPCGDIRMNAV
Sequence of 5-hydroxytryptamine receptor 1D (P28221 whole entry): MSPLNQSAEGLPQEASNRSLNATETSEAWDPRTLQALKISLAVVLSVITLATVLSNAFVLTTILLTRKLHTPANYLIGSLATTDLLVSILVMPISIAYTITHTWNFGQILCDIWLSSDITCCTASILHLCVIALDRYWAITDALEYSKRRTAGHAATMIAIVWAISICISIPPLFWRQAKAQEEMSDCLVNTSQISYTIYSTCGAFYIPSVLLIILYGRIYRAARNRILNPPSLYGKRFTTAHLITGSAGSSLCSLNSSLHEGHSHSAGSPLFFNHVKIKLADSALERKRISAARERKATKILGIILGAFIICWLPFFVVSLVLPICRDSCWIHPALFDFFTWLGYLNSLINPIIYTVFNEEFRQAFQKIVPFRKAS
Sequence of 5-hydroxytryptamine receptor 1B (P28222 whole entry): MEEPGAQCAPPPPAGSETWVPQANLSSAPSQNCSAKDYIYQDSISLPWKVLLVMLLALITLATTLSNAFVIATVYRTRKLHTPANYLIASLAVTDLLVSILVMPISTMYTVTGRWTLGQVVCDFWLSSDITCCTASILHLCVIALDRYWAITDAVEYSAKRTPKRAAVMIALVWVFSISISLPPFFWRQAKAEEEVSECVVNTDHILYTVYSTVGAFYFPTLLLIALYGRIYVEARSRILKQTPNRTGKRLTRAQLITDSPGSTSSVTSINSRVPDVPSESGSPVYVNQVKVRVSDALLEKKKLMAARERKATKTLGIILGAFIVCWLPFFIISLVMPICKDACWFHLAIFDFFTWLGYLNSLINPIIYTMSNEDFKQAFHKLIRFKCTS
Sequence of D(2) dopamine receptor (P61169 whole entry): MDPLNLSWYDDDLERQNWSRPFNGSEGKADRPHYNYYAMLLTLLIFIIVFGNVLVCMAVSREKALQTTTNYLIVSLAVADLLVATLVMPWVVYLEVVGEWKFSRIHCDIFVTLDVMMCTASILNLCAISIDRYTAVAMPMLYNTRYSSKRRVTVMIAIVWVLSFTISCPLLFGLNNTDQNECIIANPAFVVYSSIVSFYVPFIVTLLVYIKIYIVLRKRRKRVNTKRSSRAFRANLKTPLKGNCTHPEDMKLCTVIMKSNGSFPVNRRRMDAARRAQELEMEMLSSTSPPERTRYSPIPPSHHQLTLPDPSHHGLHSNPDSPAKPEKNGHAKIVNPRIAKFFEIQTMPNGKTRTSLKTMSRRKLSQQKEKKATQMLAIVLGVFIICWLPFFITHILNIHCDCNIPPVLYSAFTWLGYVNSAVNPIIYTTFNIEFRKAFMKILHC

As to `NC(=O)c1ccc2c(c1)CCO[C@@H]2CCN1CC=C(c2c[nH]c3c(F)cccc23)CC1`, the inhibition constant (Ki) (as a rule, a measure of affinity in units of concentration, obtained from inhibition or displacement) is 48 nM on D(2) dopamine receptor; 1.7 nM in experiment [1]; 0.2 nM in experiment [2]; 199 nM in experiment [3]; 25 nM in experiment [4].
On the same counts, the results for `NC(=O)c1ccc2c(c1)CCO[C@H]2CCN1CC=C(c2c[nH]c3c(F)cccc23)CC1` are 7 nM, 2.8 nM, 0.3 nM, 387 nM and 15 nM.
For `NC(=O)c1ccc2c(c1)CCOC2CCN1CC=C(c2ccc(F)c3ccoc23)CC1` (configuration not stated), the Ki at D(2) dopamine receptor is 52 nM; in experiment [1] it was 31 nM; in experiment [2], 1.9 nM; in experiment [4], 27 nM.
For `NC(=O)c1ccc2c(c1)CCOC2CCN1CC=C(c2c[nH]c3cc(Cl)ccc23)CC1` (configuration not stated), the inhibitory constant (Ki) is 0.38 nM in experiment [2], more than 1000 nM in experiment [3] and 145 nM in experiment [4].
As for `NC(=O)c1ccc2c(c1)CCOC2CCN1CC=C(c2ccc3cc(F)ccc3c2)CC1` (configuration not stated), the Ki at D(2) dopamine receptor was 491 nM; in experiment [1], 36 nM; in experiment [2] it was 2.2 nM; in experiment [3] it was more than 1000 nM; in experiment [4], 71 nM.
Regarding `NC(=O)c1ccc2c(c1)CCOC2CCN1CCN(c2c[nH]c3cc(F)ccc23)CC1` (configuration not stated), the Ki came to 7.1 nM on D(2) dopamine receptor; 5.8 nM in experiment [1]; 19 nM in experiment [2]; 310 nM in experiment [3]; 74 nM in experiment [4].
With `Cn1cc(C2=CCN(CCC3OCCc4cc(C(N)=O)ccc43)CC2)c2ccc(F)cc21` (configuration not stated), the Ki was 73 nM at D(2) dopamine receptor; 17 nM in experiment [1]; 0.98 nM in experiment [2]; more than 1000 nM in experiment [3]; 65 nM in experiment [4].
Regarding `N#Cc1cccc2c(C3=CCN(CCC4OCCc5cc(C(N)=O)ccc54)CC3)c[nH]c12` (configuration not stated), the Ki on D(2) dopamine receptor was 15 nM; in experiment [1] it was 134 nM; in experiment [2], 2.1 nM; in experiment [3] it was more than 1000 nM; in experiment [4], 130 nM.
On the same counts, the results for `C[C@H]1CC(c2c[nH]c3cc(F)ccc23)CCN1CCC1OCCc2cc(C(N)=O)ccc21` (some centres not stated) are 86 nM, 20 nM, 0.78 nM, more than 1000 nM and 28 nM.
On the same counts, the results for `NC(=O)c1ccc2c(c1)CCOC2CCN1CC=C(c2c[nH]c3cc(C(F)(F)F)ccc23)CC1` (configuration not stated) are 8.6 nM, 190 nM, 0.99 nM, more than 1000 nM and 122 nM.
With `NC(=O)c1ccc2c(c1)CCOC2CCN1CC=C(c2[nH]nc3cc(F)ccc23)CC1` (configuration not stated), the inhibitory constant (Ki) on D(2) dopamine receptor was 33 nM; in experiment [1], 2.1 nM; in experiment [2] it was 0.5 nM; in experiment [3], 210 nM; in experiment [4], 24 nM.
As to `Cn1nc(C2=CCN(CCC3OCCc4cc(C(N)=O)ccc43)CC2)c2ccc(F)cc21` (configuration not stated), the Ki on D(2) dopamine receptor is 183 nM; in experiment [1], 16 nM; in experiment [2], 0.54 nM; in experiment [3] it was more than 1000 nM; in experiment [4] it was 51 nM.
For the molecule `NC(=O)c1ccc2c(c1)CCOC2CCN1CCC(c2nsc3cc(F)ccc23)CC1` (configuration not stated), the results for the Ki in experiment [2], in experiment [3] and in experiment [4] were 53 nM, 200 nM and 40 nM, respectively.
Regarding `NC(=O)c1ccc2c(c1)CCOC2CCN1CC=C(c2c[nH]c3ccc(F)cc23)CC1` (configuration not stated), the Ki was 2.1 nM at D(2) dopamine receptor; 101 nM in experiment [1]; 1.6 nM in experiment [2]; more than 1000 nM in experiment [3]; 130 nM in experiment [4].
`NC(=O)c1ccc2c(c1)CCOC2CCN1CCC(c2c[nH]c3cc(F)ccc23)CC1` (configuration not stated): the inhibitory constant (Ki) at D(2) dopamine receptor was 19 nM; in experiment [1] it was 12 nM; in experiment [2] it was 2 nM; in experiment [3], 131 nM; in experiment [4] it was 8.4 nM.
Turning to `NC(=O)c1ccc2c(c1)CCOC2CCN1CCC(c2cccc3ccccc23)CC1` (configuration not stated), the Release in the experiment listed under Cavia porcellus is reported as 52%. The Ki at D(2) dopamine receptor was determined as 50 nM; in experiment [1], 30 nM; in experiment [2] it was 15 nM; in experiment [3] it was 73 nM; in experiment [4], 14 nM.
For `NC(=O)c1ccc2c(c1)CCOC2CCN1CCC(c2c[nH]c3cc(F)ccc23)C1` (configuration not stated), the Ki on D(2) dopamine receptor came to 28 nM; in experiment [1], 1.2 nM; in experiment [2] it was 2.1 nM; in experiment [3] it was 96 nM; in experiment [4], 40 nM.
On the same counts, the results for `NC(=O)c1ccc2c(c1)CCOC2CCN1CC=C(c2noc3cc(F)ccc23)CC1` (configuration not stated) are 37 nM, 3 nM, 8 nM, 155 nM and 63 nM.
For `NC(=O)c1ccc2c(c1)CCOC2CCN1CC=C(c2cccc3ccccc23)CC1` (configuration not stated), the Release in the experiment listed under Cavia porcellus is reported as 11%. In addition, the Ki at D(2) dopamine receptor stood at 167 nM; in experiment [1] it was 224 nM; in experiment [2], 3.2 nM; in experiment [3] it was 153 nM; in experiment [4], 5.4 nM.
For the molecule `NC(=O)c1ccc2c(c1)CCOC2CCN1CC=C(c2csc3cc(F)ccc23)CC1` (configuration not stated), the Ki on D(2) dopamine receptor was 3.8 nM; in experiment [1], 17 nM; in experiment [2], 1 nM; in experiment [3], 186 nM; in experiment [4], 20 nM.
On the same counts, the results for `NC(=O)c1ccc2c(c1)CCOC2CCN1CC=C(c2coc3cc(F)ccc23)CC1` (configuration not stated) are 21 nM, 2.8 nM, 0.29 nM, 155 nM and 28 nM.
On to `NC(=O)c1ccc2c(c1)CCOC2CCN1CC=C(c2c[nH]c3c(F)c(F)ccc23)CC1` (configuration not stated), for which the Ki is 6.7 nM on D(2) dopamine receptor; 16 nM in experiment [1]; 0.3 nM in experiment [2]; more than 1000 nM in experiment [3]; 57 nM in experiment [4].
`NC(=O)c1ccc2c(c1)CCOC2CCN1CC=C(c2c[nH]c3c(F)cccc23)CC1` (configuration not stated): the Ki at D(2) dopamine receptor was 3.8 nM; in experiment [1], 26 nM; in experiment [2], 0.76 nM; in experiment [3], more than 1000 nM; in experiment [4] it was 26 nM.
In the case of `NC(=O)c1ccc2c(c1)CCOC2CCN1CC=C(c2c[nH]c3cc(F)ccc23)CC1` (configuration not stated), in the experiment listed under Cavia porcellus, the Release stood at 36%. Further, the Ki at D(2) dopamine receptor was determined as 4.7 nM; in experiment [1], 16 nM; in experiment [2], 0.11 nM; in experiment [3], 281 nM; in experiment [4] it was 56 nM.
On to `NC(=O)c1ccc2c(c1)CCOC2CCN1CC=C(c2cccc3ccc(F)cc23)CC1` (configuration not stated), for which the Ki on D(2) dopamine receptor is 87 nM; in experiment [1], 202 nM; in experiment [2], 13 nM; in experiment [3], 210 nM; in experiment [4] it was 26 nM.
On to `COc1ccc2[nH]cc(C3=CCN(CCC4OCCc5cc(C(N)=O)ccc54)CC3)c2c1` (configuration not stated), for which the Release in the experiment filed under Cavia porcellus was found to be 42%. Moreover, the Ki at D(2) dopamine receptor came out at 26 nM; in experiment [1], 75 nM; in experiment [2] it was 3.5 nM; in experiment [3], 316 nM; in experiment [4], 31 nM.
In the case of `NC(=O)c1ccc2c(c1)CCOC2CCN1CC=C(c2c[nH]c3c(Cl)c(Cl)ccc23)CC1` (configuration not stated), the inhibitory constant (Ki) in experiment [2] was 0.28 nM; in experiment [3], more than 1000 nM; in experiment [4], 165 nM.
